Legend:
[1] = Induction of anti-CD3 antibodies-stimulated human exhausted CD8+ T cell activation assessed fold increase in CTLA4 expression measured by flow cytometry analysis; assay type: functional, T cell line; note: reference of the scale not given here
[2] = Induction of anti-CD3 antibodies-stimulated human exhausted T cell activation assessed fold increase in GM-CSF secretion measured by ELISA assay; assay type: functional, T cell line; note: reference of the scale not given here
[3] = Induction of anti-CD3 antibodies-stimulated human T cell activation at 1 uM assessed fold increase in CD25 expression measured by ELISA assay; assay type: functional, T cell line; note: reference of the scale not given here
[4] = Induction of anti-CD3 antibodies-stimulated human CD8+ T cell activation at 1.11 uM assessed fold increase in cell proliferation measured by flow cytometry analysis; assay type: functional, T cell line; note: reference of the scale not given here
[5] = Induction of anti-CD3 antibodies-stimulated human T cell activation at 1.11 uM assessed fold increase in IFN-gamma secretion measured by ELISA assay; assay type: functional, T cell line; note: reference of the scale not given here
[6] = Induction of anti-CD3 antibodies-stimulated human T cell activation at 10 uM assessed fold increase in GM-CSF secretion measured by ELISA assay; assay type: functional, T cell line; note: reference of the scale not given here
[7] = Induction of anti-CD3 antibodies-stimulated human T cell activation at 1.11 uM assessed fold increase in GM-CSF secretion measured by ELISA assay; assay type: functional, T cell line; note: reference of the scale not given here
[8] = Induction of anti-CD3/CD28 antibodies-stimulated human CD8+ T cell activation at 1.11 uM assessed fold increase in cell proliferation measured by flow cytometry analysis; assay type: functional, T cell line
[9] = Induction of anti-CD3/CD28 antibodies-stimulated human T cell activation at 1 uM assessed fold increase in CD25 expression measured by ELISA assay; assay type: functional, T cell line
[10] = Induction of anti-CD3 antibodies-stimulated human CD8+ T cell activation at 10 uM assessed fold increase in CD69 expression measured by flow cytometry analysis; assay type: functional, T cell line; note: reference of the scale not given here
[11] = Induction of anti-CD3/CD28 antibodies-stimulated human CD4+ T cell activation at 10 uM assessed fold increase in cell proliferation measured by flow cytometry analysis; assay type: functional, T cell line
[12] = molecular target: T1, E3 ubiquitin-protein ligase CBL-B (Homo sapiens, UniProt Q13191); experiment: Binding affinity towards N-terminal biotinylated Avi-tagged human CBL-B (36 to 427 residues) measured by surface plasmon resonance assay
T1 sequence (Q13191 whole entry, the tested form may be a part): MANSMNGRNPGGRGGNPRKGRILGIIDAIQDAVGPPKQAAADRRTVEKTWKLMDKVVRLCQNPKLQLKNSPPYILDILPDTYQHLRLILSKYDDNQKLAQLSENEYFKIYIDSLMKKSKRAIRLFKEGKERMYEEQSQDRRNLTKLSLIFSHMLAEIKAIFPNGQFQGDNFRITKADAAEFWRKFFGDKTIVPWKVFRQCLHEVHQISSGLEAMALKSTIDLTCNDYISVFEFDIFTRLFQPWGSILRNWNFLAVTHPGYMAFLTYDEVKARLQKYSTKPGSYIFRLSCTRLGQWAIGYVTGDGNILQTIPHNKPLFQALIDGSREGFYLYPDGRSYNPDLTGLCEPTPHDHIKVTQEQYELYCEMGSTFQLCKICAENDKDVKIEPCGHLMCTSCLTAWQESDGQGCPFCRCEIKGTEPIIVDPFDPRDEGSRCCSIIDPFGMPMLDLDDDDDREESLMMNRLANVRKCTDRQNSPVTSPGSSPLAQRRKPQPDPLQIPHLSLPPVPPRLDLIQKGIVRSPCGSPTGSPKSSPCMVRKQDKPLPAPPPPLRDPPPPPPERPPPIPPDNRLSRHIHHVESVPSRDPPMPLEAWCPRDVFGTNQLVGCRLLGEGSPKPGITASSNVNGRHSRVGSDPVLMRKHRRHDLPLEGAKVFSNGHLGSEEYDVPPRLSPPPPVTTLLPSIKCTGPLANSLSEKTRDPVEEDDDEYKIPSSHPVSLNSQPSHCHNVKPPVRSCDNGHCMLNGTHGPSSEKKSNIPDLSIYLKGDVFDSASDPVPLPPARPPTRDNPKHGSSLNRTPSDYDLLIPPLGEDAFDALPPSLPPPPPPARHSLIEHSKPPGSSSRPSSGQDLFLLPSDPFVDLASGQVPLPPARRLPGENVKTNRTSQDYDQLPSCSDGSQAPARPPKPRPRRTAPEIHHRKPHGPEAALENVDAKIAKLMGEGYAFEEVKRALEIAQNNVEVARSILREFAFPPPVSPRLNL

[13] = Induction of anti-CD3/CD28 antibodies-stimulated human T cell activation at 0.3 uM assessed fold increase in CD25 expression measured by ELISA assay; assay type: functional, T cell line
[14] = Induction of anti-CD3/CD28 antibodies-stimulated human anergic T cell activation at 1.11 uM assessed fold increase in IFN-gamma secretion measured by ELISA assay; assay type: functional, T cell line
[15] = Induction of activation of human CD56+ CD3- NK cells co-cultured with human K562 cells in 1:1 ratio and assessed as increase in TNF-alpha secretion at 10 uM measured by ELISA assay; assay type: functional, Natural killer cell
[16] = molecular target: T1, E3 ubiquitin-protein ligase CBL-B; experiment: Inhibition of N-terminal Avi-tagged human CBL-B (36 to 427 residues) incubated with 60 nM Src kinase for 1.5 hrs followed by incubation with fluorescently labeled UbcH5B-Ub for 1 hr and measured by TR-FRET assay; assay type: single protein
[17] = Induction of anti-CD3 antibodies-stimulated human CD8+ T cell activation at 1.11 uM assessed fold increase in CD69 expression measured by flow cytometry analysis; assay type: functional, T cell line; note: reference of the scale not given here
[18] = Induction of anti-CD3 antibodies-stimulated human CD8+ T cell activation in immunocompetent mouse assessed fold increase in CD25 expression at 90 mg/kg, po administered twice a day; assay type: functional; note: reference of the scale not given here
[19] = Induction of anti-CD3 antibodies-stimulated human CD4+ T cell activation in immunocompetent mouse assessed fold increase in CD25 expression at 180 mg/kg, po administered twice a day; assay type: functional; note: reference of the scale not given here
[20] = Induction of anti-CD3 antibodies-stimulated human CD8+ T cell activation in immunocompetent mouse assessed fold increase in CD25 expression at 90 mg/kg, ip administered thrice a day; assay type: functional; note: reference of the scale not given here
[21] = Induction of anti-CD3 antibodies-stimulated human CD8+ T cell activation in immunocompetent mouse assessed fold increase in CD25 expression at 180 mg/kg, po administered twice a day; assay type: functional; note: reference of the scale not given here
[22] = Induction of anti-CD3 antibodies-stimulated human CD4+ T cell activation in immunocompetent mouse assessed fold increase in CD25 expression at 90 mg/kg, po administered twice a day; assay type: functional; note: reference of the scale not given here
[23] = Induction of anti-CD3 antibodies-stimulated human CD8+ T cell activation in immunocompetent mouse assessed fold increase in CD25 expression at 135 mg/kg, po administered twice a day; assay type: functional; note: reference of the scale not given here
[24] = Induction of anti-CD3 antibodies-stimulated human CD4+ T cell activation in immunocompetent mouse assessed fold increase in CD25 expression at 135 mg/kg, po administered twice a day; assay type: functional; note: reference of the scale not given here

| Kd [12] [nM] | IC50 [16] [nM] | SMILES | fold change (FC) [1] | fold change (FC) [2] | fold change (FC) [3] | fold change (FC) [4] | fold change (FC) [5] | fold change (FC) [6] | fold change (FC) [7] | fold change (FC) [8] | fold change (FC) [9] | fold change (FC) [10] | fold change (FC) [11] | fold change (FC) [13] | fold change (FC) [14] | fold change (FC) [15] | fold change (FC) [17] | other results |
| --- | --- | --- | --- | --- | --- | --- | --- | --- | --- | --- | --- | --- | --- | --- | --- | --- | --- | --- |
| < 100 | < 100 | Cn1cnnc1C(F)(F)C(C)(F)c1cccc(N2Cc3c(cc(CN4CC[C@@H](F)C4)cc3C(F)(F)F)C2=O)c1 (single isomer, unassigned) | >1.61 | 1.41 | >=1.001 | >4 | <=2 | 2.01 | 1.51 | 2.01 | 1.51 | 1.401 | >4 | 1.31 | 2.51 | >=5 | 1.201 | – |
| < 100 | < 100 | COC1CN(Cc2cc3c(c(C(F)(F)F)c2)CN(c2cccc([C@@](C)(F)C(F)(F)c4nncn4C)c2)C3=O)C1 | >1.61 | >1.61 | >=1.001 | 3.01 | 3.01 | 2.01 | 1.51 | 3.01 | 1.31 | 1.401 | >4 | 1.01 | 2.51 | >=5 | 1.201 | – |
| – | < 100 | C[C@H](c1cc2c(c(C(F)(F)F)c1)CN(c1cccc(C3(Cc4nncn4C)COC3)c1)C2=O)N1CC[C@H](F)C1 | >1.61 | >1.61 | >=1.001 | 3.01 | 2.01 | 2.01 | 1.51 | 3.01 | 1.51 | 1.401 | >4 | 1.31 | >4.01 | >=5 | 1.201 | fold change (FC) [18]: 1; fold change (FC) [19]: 1; fold change (FC) [20]: 1; fold change (FC) [21]: 1; fold change (FC) [22]: 1; fold change (FC) [23]: 1; fold change (FC) [24]: 1 |
| < 100 | < 100 | Cc1n[nH]c(C)c1-c1cc2c(c(C(F)(F)F)c1)CN(c1cccc(C3(Cc4nncn4C)COC3)c1)C2=O | >1.61 | <=1.4 | >=1.001 | 3.01 | <=2 | 2.01 | 1.51 | 2.01 | 1.01 | 1.401 | >4 | 1.01 | <=2.5 | 2.01 | 1.201 | – |

— ChEMBL document CHEMBL5050844 (2019)
